Source: patent publication US9145411B2, “Substituted amino-pyrimidine derivatives” (Asana Biosciences, LLC, priority 2012, dated 2015)

Columns and labels:
PI3 kinase isoform β = PI3 kinase isoform β (Homo sapiens, UniProt P42338); assay: PI3 Kinase TR-FRET assay, isoform β; format: biochemical; conditions: read-out: inhibition of PI3 kinase isoform β, IC50
Protocol: The ability of compounds of the invention to inhibit PI3K activity was determined in a homogeneous TR-FRET assay using a PI3K assay kit (Millipore, USA; cat #33-016) according to manufacturer's instructions. PI3-Kinases (isoforms α, β, γ and δ) catalyze the phosphorylation of phosphatidylinositol, PIP2 to PIP3 in the presence of ATP and Mg^2+. The PIP3 product is detected by displacement of biotin-PIP3 from an energy transfer complex consisting of Europium labeled anti-GST monoclonal antibody, a GST-tagged PH domain, biotinylated PIP3 and Streptavidin-APC. Excitation of Europium in the complex results in an energy transfer to the APC and a fluorescence emission at 665 nm. The PIP3 product displaces biotin-PIP3 from the complex resulting in a loss of energy transfer and thus a decrease in signal.
To test for the ability of compounds to inhibit the activity of PI3Kα (wild-type), exemplary compounds of formula (I) were dissolved in DMSO and directly distributed into 384-well plates at a volume of 0.5 μL. […] Fluorescence was measured at 615 and 665 nm upon excitation at 340 nm in a Victor™ V5 fluorometer (Perkin Elmer, USA). The fluorescence emission ratio at 665 to 615 nm, proportional to the kinase activity, was plotted against the compound concentration to generate dose-response curves and IC50 values were determined using GraphPad Prism® 5 software. […]

pS6RP = assay: In-cell Western assay, pS6RP, U87MG cells; format: cell-based; conditions: Homo sapiens, U-87 MG, read-out: inhibition of pS6RP, IC50
Protocol: Cells from human prostate cancer cell line PC3 (American Type Culture Collection (ATCC), Manassas, Va. 20108 USA) were seeded at an optimal density of 22,000 cell/well in 96-well plates containing Ham's F12K medium (90 μL) and incubated overnight. The compound dilutions were carried out in 100% DMSO followed by a dilution in the medium. Test compounds were added in serial dilutions to the wells and incubated for 2 hours. The cells were washed and fixed with 4% paraformaldehyde. After incubation at room temperature for 1 hour in the dark, blocking was done for 2 hours at room temperature. […] IC50 values were calculated using a sigmoidal dose-response curve fit in GraphPad Prism® v5 software.
In-cell Western assays for pAkt(T308) and pS6RP were also carried out in a glioma cancer cell line with a PTEN null mutation (U87MG cells), in a similar manner to the protocol described above for PC3 cells, in order to assess the ability of the compounds to inhibit the Akt-pathway in a glioma cancer cell line. […] Compounds of the invention cause inhibition of pAkt(T308), pAkt(S473) and pS6RP in U87MG, BT474 and T47D cell lines as determined by these assays.

PC3 cells = assay: In vivo efficacy study (tumor growth suppression), PC3 xenograft; conditions: athymic male mice, after 14 days of dosing at 50 mg/kg qd po
Protocol: PC3 cells were cultured at 37° C. in a 5% CO2 incubator using Hams F12 K medium. Five million (5×10^6) cells were implanted subcutaneously to the right flank of athymic male mice (Harlan, age: 6-7 weeks, weight: about 20 g). Tumor bearing mice were randomized when the tumor volume reached about 100 mm^3 Ten mice were used per group. Compounds of formula (I) were typically formulated using HPCD in PBS, pH 7.4 or in 10% Ethanol/40% Solutol/50% 50 mM aq. methanesulfonic acid and dosed orally (dose volume, 10 mL/kg). Solutions of the compounds were prepared immediately before dosing the animals. A vehicle control and a reference compound were included along with test compounds.
The tumor size was measured on alternate days using Vernier® calipers. Assuming tumors to be ellipsoid, the tumor volume was calculated using the formula: V=(D×d^2)/2 • where: • V (mm^3) is tumor volume • D is longest diameter in mm • d is shortest diameter in mm.
Changes in tumor volume (Δ volumes) for each treated (T) and control (C) group were calculated by subtracting the mean tumor volume on the first day of treatment (starting day) from the mean tumor volume on the specified observation day. […]
Percentage tumor growth inhibition was calculated as [100−% T/C]. Percentage body weight change was calculated as [(Body weight on specified observation day−Body weight on starting day)/Body weight on starting day]×100. […]

Chain of PI3 kinase isoform β (P42338 whole entry, the tested form may be a part, canonical isoform): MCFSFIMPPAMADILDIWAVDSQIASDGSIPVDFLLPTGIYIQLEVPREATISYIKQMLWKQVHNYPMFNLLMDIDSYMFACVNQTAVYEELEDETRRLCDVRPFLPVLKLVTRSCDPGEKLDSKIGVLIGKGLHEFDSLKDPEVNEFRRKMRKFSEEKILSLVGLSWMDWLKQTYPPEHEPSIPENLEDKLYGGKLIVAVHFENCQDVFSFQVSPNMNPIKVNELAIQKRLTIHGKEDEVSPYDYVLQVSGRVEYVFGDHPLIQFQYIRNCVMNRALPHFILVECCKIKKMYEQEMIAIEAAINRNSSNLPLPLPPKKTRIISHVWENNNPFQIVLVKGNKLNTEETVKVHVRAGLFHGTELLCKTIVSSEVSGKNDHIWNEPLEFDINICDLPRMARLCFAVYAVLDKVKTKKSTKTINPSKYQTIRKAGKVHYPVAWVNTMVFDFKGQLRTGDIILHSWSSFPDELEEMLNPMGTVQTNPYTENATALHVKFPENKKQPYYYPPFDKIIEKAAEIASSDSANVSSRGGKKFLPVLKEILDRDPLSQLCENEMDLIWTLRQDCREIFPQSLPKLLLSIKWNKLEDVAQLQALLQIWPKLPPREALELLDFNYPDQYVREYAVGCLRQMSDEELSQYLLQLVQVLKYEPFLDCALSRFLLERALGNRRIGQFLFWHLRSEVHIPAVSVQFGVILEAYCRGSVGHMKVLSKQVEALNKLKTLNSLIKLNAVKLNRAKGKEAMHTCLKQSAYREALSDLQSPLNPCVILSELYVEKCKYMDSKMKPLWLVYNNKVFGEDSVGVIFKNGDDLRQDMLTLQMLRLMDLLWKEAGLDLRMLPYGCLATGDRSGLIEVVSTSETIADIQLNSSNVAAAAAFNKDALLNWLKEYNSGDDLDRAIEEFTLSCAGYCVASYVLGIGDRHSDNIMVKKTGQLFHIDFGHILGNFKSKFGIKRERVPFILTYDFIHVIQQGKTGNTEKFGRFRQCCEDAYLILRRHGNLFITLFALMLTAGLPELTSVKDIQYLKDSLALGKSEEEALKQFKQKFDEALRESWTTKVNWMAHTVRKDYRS
Chain of PI3 kinase isoform β (P27986 whole entry partner, the tested form may be a part, canonical isoform): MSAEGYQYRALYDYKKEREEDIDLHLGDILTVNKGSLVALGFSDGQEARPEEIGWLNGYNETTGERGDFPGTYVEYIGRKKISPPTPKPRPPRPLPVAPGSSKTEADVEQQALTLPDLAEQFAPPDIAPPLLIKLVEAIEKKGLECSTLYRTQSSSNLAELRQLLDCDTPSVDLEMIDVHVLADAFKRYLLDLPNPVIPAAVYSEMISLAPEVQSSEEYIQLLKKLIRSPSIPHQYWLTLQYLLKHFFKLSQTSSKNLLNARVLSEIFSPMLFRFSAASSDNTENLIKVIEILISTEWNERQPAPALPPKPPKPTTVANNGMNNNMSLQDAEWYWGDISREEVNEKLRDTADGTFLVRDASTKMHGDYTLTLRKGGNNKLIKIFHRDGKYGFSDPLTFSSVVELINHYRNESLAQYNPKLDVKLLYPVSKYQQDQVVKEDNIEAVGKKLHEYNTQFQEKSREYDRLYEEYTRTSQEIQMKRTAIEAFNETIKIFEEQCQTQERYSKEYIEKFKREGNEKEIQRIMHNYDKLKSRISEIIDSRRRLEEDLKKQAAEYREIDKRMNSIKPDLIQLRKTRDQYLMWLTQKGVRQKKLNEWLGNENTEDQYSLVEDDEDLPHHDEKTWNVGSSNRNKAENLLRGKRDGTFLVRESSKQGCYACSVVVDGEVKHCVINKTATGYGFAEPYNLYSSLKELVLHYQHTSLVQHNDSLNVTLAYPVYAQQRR

With `CC(=O)Nc1cccc(-c2cnc3c(N4CCOCC4)nc(-c4cnc(N)nc4)nc3c2)c1` [Example 3, N-(3-(2-(2-Aminopyrimidin-5-yl)-4-morpholinopyrido[3,2-d]pyrimidin-7-yl)-phenyl)acetamide] the IC50 (PI3 kinase isoform β) was < 0.5 µM, the IC50 (pS6RP) was < 0.5 µM and the “tumor growth inhibition relative to vehicle control group” value (PC3 cells) was “more than 40%”.
